The first test has as its system cortical organoids. The test is described as follows: Pharmacological manipulation of cortical organoid network activity recorded by multi-electrode array (MEA). The test is classed as cell-based, human.
Conditions: not given
For `NC1=N[C@H](O)[C@H]2[C@H]3O[C@]4(O)O[C@@H]([C@@H](O)[C@@]2(N1)[C@@H]4O)[C@]3(O)CO` [tetrodotoxin], the neuronal electrical activity entry is listed as “blocked”.

Staying with this test, now noted: 8-month-old organoids; recording 15 min after addition; 20 μM AP5, 20 μM CNQX, 50 μM muscimol, 25 μM baclofen, 10 μM bicuculline.
Consider `NCC(CC(=O)O)c1ccc(Cl)cc1` (stereo not drawn) [baclofen], for which the “number of bursts / burst activity” value is “significantly reducing” and the “synchronous activity / synchrony indexes” value is “extinction”.

For `N#Cc1cc2[nH]c(=O)c(=O)[nH]c2cc1[N+](=O)[O-]` [CNQX], the “number of bursts / burst activity” value was “significantly reducing” and the “synchronous activity / synchrony indexes” value was “extinction”.

As to `NCc1cc(=O)[nH]o1` [muscimol], the “number of bursts / burst activity” value is “significantly reducing” and the “synchronous activity / synchrony indexes” value is on record as “extinction”. As to `NC(CCCP(=O)(O)O)C(=O)O` (stereo not drawn) [AP5], the “number of bursts / burst activity” value is given as “significantly reducing” and the “synchronous activity / synchrony indexes” value is on record as “extinction”.
